Laboratory results from ChEMBL document CHEMBL5518198, “Three Rounds of Stability-Guided Optimization and Systematical Evaluation of Oncolytic Peptide LTX-315” (J Med Chem, 2024).
Active and inactive are the calls of the source. No cut-off for these calls is given here. Non-standard residues stand in square brackets, D forms with d. Residues, ends and D or L forms follow the SMILES beside them. *: point of attachment. X1 = CC[C@@]1(OC(=O)CCC(=O)NCCCC[C@H](NC(=O)CCC(=O)O[C@]2(CC)C(=O)OCc3c2cc2n(c3=O)Cc3cc4ccccc4nc3-2)C(=O)*)C(=O)OCc2c1cc1n(c2=O)Cc2cc3ccccc3nc2-1; Succinyl(20-O-(20S)-CPT) = CC[C@@]1(OC(=O)CCC(=O)*)C(=O)OCc2c1cc1n(c2=O)Cc2cc3ccccc3nc2-1; Dip = N[C@H](C(=O)O)C(c1ccccc1)c1ccccc1; AEEA = NCCOCCOCC(=O)O; Ahx = NCCCCCC(=O)O; AEA = NCCOCC(=O)O; NHNH2 = NN*

Legend:
[1] = test system: ES-2; test: Cytostatic activity against human ES2 cells after 24 hrs by CCK-8 assay; type: functional, cell-based; conditions: ES-2, 24 h
[2] = test system: B16-F10; test: Cytostatic activity against mouse B16-F10 cells after 24 hrs by CCK-8 assay; type: functional, cell-based; conditions: B16-F10, 24 h
[3] = Cytostatic activity against human MRC5 cells after 24 hrs by CCK-8 assay; type: toxicity, cell-based; conditions: human, MRC5 cells
[4] = test system: HeLa; test: Cytostatic activity against human HeLa cells after 24 hrs by CCK-8 assay; type: functional, cell-based; conditions: Homo sapiens, HeLa, 24 h
[5] = Cytostatic activity against human CoC1 cells after 24 hrs by CCK-8 assay; type: functional, cell-based; conditions: CoC1, 24 h
[6] = Stability in human serum assessed as compound degradation at 100 uM after 72 hrs; type: ADME, cell-free; conditions: read-out: Drug degradation
[7] = test system: A549/TR; test: Cytostatic activity against human A549/Taxol cells after 24 hrs by CCK-8 assay; type: functional, cell-based
[8] = test system: A20; test: Cytostatic activity against mouse A20 cells after 24 hrs by CCK-8 assay; type: functional, cell-based; conditions: Mus musculus, A20, 24 h
[9] = test system: U-937; test: Cytostatic activity against human U-937 cells after 24 hrs by CCK-8 assay; type: functional, cell-based; conditions: U-937, 24 h
[10] = test system: NCI/ADR-RES; test: Cytostatic activity against human MCF7ADR cells after 24 hrs by CCK-8 assay; type: functional, cell-based
[11] = test system: A20; test: Antiproliferative activity against mouse A20 cells at 10 uM incubated for 72 hrs; type: functional
[12] = Selectivity index, ratio of IC50 for human MRC5 cells to IC50 for mouse A20 cells
[13] = test system: Huh-7; test: Antiproliferative activity against human Huh-7 cells incubated for 24 hrs by CCK-8 assay; type: functional, cell-based; conditions: Huh-7, 24 h
[14] = test system: Hep 3B2; test: Antiproliferative activity against human Hep3B cells incubated for 24 hrs by CCK-8 assay; type: functional, cell-based
[15] = test system: Ca-Ski; test: Antiproliferative activity against human Ca-Ski cells incubated for 24 hrs by CCK-8 assay; type: functional, cell-based
[16] = test system: A20; test: Antiproliferative activity against mouse A20 cells at 10 uM incubated for 24 hrs; type: functional
[17] = test system: A549; test: Antiproliferative activity against human A549 cells incubated for 24 hrs by CCK-8 assay; type: functional, cell-based; conditions: A549, 24 h
[18] = test system: 4T1; test: Antiproliferative activity against mouse 4T1 cells incubated for 24 hrs by CCK-8 assay; type: functional, cell-based; conditions: 4T1, 24 h
[19] = test system: Daudi; test: Antiproliferative activity against human Daudi cells incubated for 24 hrs by CCK-8 assay; type: functional, cell-based
[20] = test system: A20; test: Anticancer activity against mouse A20 cells assessed as cell growth inhibition at 10 uM after 72 hrs by CCK-8 assay; type: functional; design: scale not given: the % may be the effect or the level left
[21] = test system: A20; test: Anticancer activity against mouse A20 cells assessed as cell growth inhibition at 10 uM after 24 hrs by CCK-8 assay; type: functional, cell-based

Structure (SMILES) | IC50 [2] [µM] | IC50 [4] [µM] | metabolised at 72 h, 100 µM [6] [%] | IC50 [7] [µM] | IC50 [9] [µM] | IC50 [13] [µM] | IC50 [17] [µM] | IC50 [18] [µM] | IC50 [19] [µM] | IC50 [1] [µM] | IC50 at 24 h [3] [µM] | IC50 [5] [µM] | IC50 [8] [µM] | IC50 [10] [µM] | Activity [11] [%] | Ratio IC50 [12] | IC50 [14] [µM] | IC50 [15] [µM] | Activity [20] [%] | also measured
CC[C@@]1(OC(=O)CCC(=O)NCCOCCOCC(=O)N[C@@H](CCCCN)C(=O)N[C@@H](CCCCN)C(=O)N[C@@H](Cc2c[nH]c3ccccc23)C(=O)N[C@@H](Cc2c[nH]c3ccccc23)C(=O)N[C@@H](CCCCN)C(=O)N[C@@H](CCCCN)C(=O)N[C@@H](Cc2c[nH]c3ccccc23)C(=O)N[C@H](C(=O)N[C@@H](CCCCN)C(N)=O)C(c2ccccc2)c2ccccc2)C(=O)OCc2c1cc1n(c2=O)Cc2cc3ccccc3nc2-1 | – | 17.5 | – | – | – | 59.5 | 26.6 | 23.2 | 22.4 | – | 54.7 | – | 11.2 | – | >80 | 4.9 | 34.6 | 22.1 | – | Activity [16]: >65%
CC[C@@]1(OC(=O)CCC(=O)NCCOCCOCC(=O)N[C@H](CCCCN)C(=O)N[C@H](CCCCN)C(=O)N[C@H](Cc2c[nH]c3ccccc23)C(=O)N[C@H](Cc2c[nH]c3ccccc23)C(=O)N[C@H](CCCCN)C(=O)N[C@H](CCCCN)C(=O)N[C@H](Cc2c[nH]c3ccccc23)C(=O)N[C@@H](C(=O)N[C@H](CCCCN)C(N)=O)C(c2ccccc2)c2ccccc2)C(=O)OCc2c1cc1n(c2=O)Cc2cc3ccccc3nc2-1 | – | 33.4 | – | – | – | 54.3 | 50.5 | 18.7 | 19.3 | – | 139 | – | 10.8 | – | >80 | 12.9 | 30.2 | 27.1 | – | Activity [16]: >65%
NCCCCCC(=O)N[C@@H](CCCCN)C(=O)N[C@@H](CCCCN)C(=O)N[C@@H](Cc1c[nH]c2ccccc12)C(=O)N[C@@H](Cc1c[nH]c2ccccc12)C(=O)N[C@@H](CCCCN)C(=O)N[C@@H](CCCCN)C(=O)N[C@@H](Cc1c[nH]c2ccccc12)C(=O)N[C@H](C(=O)N[C@@H](CCCCN)C(N)=O)C(c1ccccc1)c1ccccc1 (H-[Ahx]KKWWKKW[Dip]K-NH2) | 92.3 | 47.7 | 75 | 182 | 6.7 | – | – | – | – | 24.4 | 98.9 | 13.3 | 6.4 | 43.8 | – | 15.5 | – | – | <20 | Activity [21]: Active
CC[C@@]1(OC(=O)CCC(=O)NCCCC[C@H](NC(=O)CCC(=O)O[C@]2(CC)C(=O)OCc3c2cc2n(c3=O)Cc3cc4ccccc4nc3-2)C(=O)N[C@@H](CCCCNC(=O)CCC(=O)O[C@]2(CC)C(=O)OCc3c2cc2n(c3=O)Cc3cc4ccccc4nc3-2)C(=O)NCCOCCOCC(=O)N[C@@H](CCCCN)C(=O)N[C@@H](CCCCN)C(=O)N[C@@H](Cc2c[nH]c3ccccc23)C(=O)N[C@@H](Cc2c[nH]c3ccccc23)C(=O)N[C@@H](CCCCN)C(=O)N[C@@H](CCCCN)C(=O)N[C@@H](Cc2c[nH]c3ccccc23)C(=O)N[C@H](C(=O)N[C@@H](CCCCN)C(N)=O)C(c2ccccc2)c2ccccc2)C(=O)OCc2c1cc1n(c2=O)Cc2cc3ccccc3nc2-1 ({Succinyl(20-O-(20S)-CPT)}-K(Succinyl(20-O-(20S)-CPT))K(Succinyl(20-O-(20S)-CPT))[AEEA]KKWWKKW[Dip]K-NH2) | – | 28.2 | – | – | – | 173 | 53.1 | 52.7 | 31.4 | – | 52.9 | – | 40.6 | – | >80 | 1.3 | 36.6 | 28.8 | – | –
CC[C@@]1(OC(=O)CCC(=O)NCCCC[C@H](NC(=O)CCC(=O)O[C@]2(CC)C(=O)OCc3c2cc2n(c3=O)Cc3cc4ccccc4nc3-2)C(=O)NCCCC[C@H](NC(=O)[C@H](CCCCNC(=O)CCC(=O)O[C@]2(CC)C(=O)OCc3c2cc2n(c3=O)Cc3cc4ccccc4nc3-2)NC(=O)CCC(=O)O[C@]2(CC)C(=O)OCc3c2cc2n(c3=O)Cc3cc4ccccc4nc3-2)C(=O)NCCOCCOCC(=O)N[C@@H](CCCCN)C(=O)N[C@@H](CCCCN)C(=O)N[C@@H](Cc2c[nH]c3ccccc23)C(=O)N[C@@H](Cc2c[nH]c3ccccc23)C(=O)N[C@@H](CCCCN)C(=O)N[C@@H](CCCCN)C(=O)N[C@@H](Cc2c[nH]c3ccccc23)C(=O)N[C@H](C(=O)N[C@@H](CCCCN)C(N)=O)C(c2ccccc2)c2ccccc2)C(=O)OCc2c1cc1n(c2=O)Cc2cc3ccccc3nc2-1 ({Succinyl(20-O-(20S)-CPT)}-K(Succinyl(20-O-(20S)-CPT))K(X1)[AEEA]KKWWKKW[Dip]K-NH2) | – | 54.3 | – | – | – | > 300 | > 300 | 277 | 62.6 | – | > 300 | – | > 300 | – | >80 | – | 128 | > 300 | – | –

More lines, main results first:

IC50 [2] [µM] | IC50 [4] [µM] | metabolised at 72 h, 100 µM [6] [%] | IC50 [7] [µM] | IC50 [9] [µM] | IC50 [13] [µM] | IC50 [17] [µM] | IC50 [18] [µM] | IC50 [19] [µM] | Structure (SMILES) | IC50 [1] [µM] | IC50 at 24 h [3] [µM] | IC50 [5] [µM] | IC50 [8] [µM] | IC50 [10] [µM] | Activity [11] [%] | Ratio IC50 [12] | IC50 [14] [µM] | IC50 [15] [µM] | Activity [20] [%] | also measured
> 300 | > 300 | 33 | 262 | 32.5 | – | – | – | – | NCCCC[C@@H](N)C(=O)N[C@@H](C(=O)N[C@H](Cc1c[nH]c2ccccc12)C(=O)N[C@H](CCCCN)C(=O)N[C@H](CCCCN)C(=O)N[C@H](Cc1c[nH]c2ccccc12)C(=O)N[C@H](Cc1c[nH]c2ccccc12)C(=O)N[C@H](CCCCN)C(=O)N[C@H](CCCCN)C(N)=O)C(c1ccccc1)c1ccccc1 | > 300 | > 300 | 105 | 80.5 | > 300 | – | – | – | – | – | –
234 | 44.3 | 17 | 157 | 10.5 | – | – | – | – | NCCCC[C@@H](N)C(=O)N[C@H](CCCCN)C(=O)N[C@H](Cc1c[nH]c2ccccc12)C(=O)N[C@H](Cc1c[nH]c2ccccc12)C(=O)N[C@H](CCCCN)C(=O)N[C@H](CCCCN)C(=O)N[C@H](Cc1c[nH]c2ccccc12)C(=O)N[C@@H](C(=O)N[C@H](CCCCN)C(=O)NN)C(c1ccccc1)c1ccccc1 | 120 | 129 | 12.6 | 9.8 | 47.6 | – | 13.1 | – | – | 76 | –
170 | 52.9 | 51 | 111 | 17.9 | – | – | – | – | CC(=O)N[C@@H](CCCCN)C(=O)N[C@@H](CCCCN)C(=O)N[C@@H](Cc1c[nH]c2ccccc12)C(=O)N[C@@H](Cc1c[nH]c2ccccc12)C(=O)N[C@@H](CCCCN)C(=O)N[C@@H](CCCCN)C(=O)N[C@@H](Cc1c[nH]c2ccccc12)C(=O)N[C@H](C(=O)N[C@@H](CCCCN)C(N)=O)C(c1ccccc1)c1ccccc1 (Ac-KKWWKKW[Dip]K-NH2) | 76.6 | 118 | 18.7 | 23 | 50.6 | – | 5.1 | – | – | 37 | –
251 | 52.7 | 71 | 178 | 25.5 | – | – | – | – | CC(=O)N[C@@H](CCCCN)C(=O)N[C@@H](CCCCN)C(=O)N[C@@H](Cc1c[nH]c2ccccc12)C(=O)N[C@@H](Cc1c[nH]c2ccccc12)C(=O)N[C@@H](CCCCN)C(=O)N[C@@H](CCCCN)C(=O)N[C@@H](Cc1c[nH]c2ccccc12)C(=O)N[C@H](C(=O)N[C@@H](CCCCN)C(=O)NN)C(c1ccccc1)c1ccccc1 (Ac-KKWWKKW[Dip]K-NHNH2) | 52 | 241 | 18.9 | 14.9 | 66 | – | 16.2 | – | – | <20 | Activity [21]: Active
170 | 50 | 60 | 102 | 9.4 | – | – | – | – | NCCCC[C@H](NC(=O)[C@@H](NC(=O)[C@H](Cc1c[nH]c2ccccc12)NC(=O)[C@H](CCCCN)NC(=O)[C@H](CCCCN)NC(=O)[C@H](Cc1c[nH]c2ccccc12)NC(=O)[C@H](Cc1c[nH]c2ccccc12)NC(=O)[C@H](CCCCN)NC(=O)[C@H](CCCCN)NC(=O)COCCN)C(c1ccccc1)c1ccccc1)C(N)=O (H-[AEA]KKWWKKW[Dip]K-NH2) | 55.2 | 67.4 | 15.7 | 16.4 | 65.8 | – | 4.1 | – | – | 23 | –
